In patent US20240116985A1, “STAPLED PEPTIDES AND METHODS THEREOF” (priority 2020, published 2024):
Where two headings read alike, the source gives them in different places.

Columns and labels:
[1] = molecular target: T1, full-length beta-Catenin (Uniprot ID P35222) (Homo sapiens, UniProt P35222); assay: Fluorescence polarization IC50 (beta-catenin / 5FAM-TCF4 10-53 competition); assay type: binding; conditions: fluorescence polarization; read-out: beta-Catenin FP IC50
T1 construct: 10 nM full-length beta-Catenin (Uniprot ID P35222)
T1 sequence (P35222 1-781): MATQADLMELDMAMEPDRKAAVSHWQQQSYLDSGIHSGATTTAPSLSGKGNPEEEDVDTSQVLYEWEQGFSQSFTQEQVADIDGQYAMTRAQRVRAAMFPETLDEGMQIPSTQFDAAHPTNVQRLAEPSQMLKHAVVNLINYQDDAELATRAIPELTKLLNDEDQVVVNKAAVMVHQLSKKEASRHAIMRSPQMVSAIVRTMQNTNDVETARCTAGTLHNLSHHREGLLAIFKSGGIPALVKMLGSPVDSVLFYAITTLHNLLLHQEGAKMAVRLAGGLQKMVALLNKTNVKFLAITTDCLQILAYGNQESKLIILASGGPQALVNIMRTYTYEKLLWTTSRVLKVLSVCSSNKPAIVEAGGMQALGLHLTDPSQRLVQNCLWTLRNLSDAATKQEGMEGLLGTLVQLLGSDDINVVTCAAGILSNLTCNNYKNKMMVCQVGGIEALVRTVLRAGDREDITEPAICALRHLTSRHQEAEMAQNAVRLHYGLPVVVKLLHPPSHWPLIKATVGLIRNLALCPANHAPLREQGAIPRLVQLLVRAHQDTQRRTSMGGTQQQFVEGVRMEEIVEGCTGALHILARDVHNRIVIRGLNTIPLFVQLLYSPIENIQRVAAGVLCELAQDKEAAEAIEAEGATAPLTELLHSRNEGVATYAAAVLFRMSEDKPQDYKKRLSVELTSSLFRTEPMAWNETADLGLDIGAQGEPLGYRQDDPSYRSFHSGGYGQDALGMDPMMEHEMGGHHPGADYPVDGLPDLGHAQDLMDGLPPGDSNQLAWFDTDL

[2] = molecular target: T2, beta-catenin/TCF4 engagement (Homo sapiens, UniProt P35222); assay: Nano-BRET target engagement assay (B-cat-Halo & TCF4-Luc in HEK293 cells); assay type: cell-based; conditions: read-out: NanoBRET Abs IC50
T2 construct: expressed in transfected cells; host or cells: HEK293
T2 sequence (P35222 1-781): T1 sequence (P35222 1-781)

Row | Compound | IC50 [1] | IC50 ([2]; absolute IC50) | IC50 [2]
1 | CCNC(=O)CC[C@H](NC(=O)[C@H](Cc1csc2ccccc12)NC(=O)[C@H](Cc1ccccc1C(F)(F)F)NC(=O)[C@]12CCN(C1)C(=O)OCCCC=CCCCC1(CCCC=CC[C@]3(CCCN3C(C)=O)C(=O)N[C@@H](CC(=O)O)C(=O)N[C@@H](CC(C)(C)C)C(=O)N1)C(=O)N[C@@H](CC(=O)O)C(=O)N[C@@H](Cc1cccc(C(=O)O)c1)C(=O)N[C@@H](C)C(=O)N[C@@H](C)C(=O)N[C@@H](Cc1ccccc1)C(=O)N[C@@H](CC)C(=O)N2)C(=O)N[C@@H](C)C(N)=O (stereo partly drawn) [I-2472, Ac-PL3-Asp-Npg-B5-Asp-3COOHF-Ala-Ala-Phe-Abu-PyrS2-2F3MeF-BztA-INHEt]GlnR-Ala-NH2] | 13 nM | 1800 nM | –
2 | CC(=O)N1CCC[C@]12CC=CCCCC1(CCCC=CCCCOC(=O)N3CC[C@@](C(=O)N[C@@H](Cc4ccccc4C(F)(F)F)C(=O)N[C@@H](Cc4csc5ccccc45)C(=O)N[C@H](C)C(N)=O)(C3)NC(=O)[C@H](Cc3ccccc3)NC(=O)[C@H](Cc3ccccc3)NC(=O)[C@H](C)NC(=O)[C@H](C)NC(=O)[C@H](Cc3cccc(C(=O)O)c3)NC(=O)[C@H](CC(=O)O)NC1=O)NC(=O)[C@H](CC(C)(C)C)NC(=O)[C@H](CC(=O)O)NC2=O (stereo partly drawn) [I-2095, Ac-PL3-Asp-Npg-B5-Asp-3COOHF-Ala-Ala-Phe-Phe-PyrS2-2F3MeF-BztA-dAla-NH2] | 78 nM | – | 10500 nM
3 | CC(=O)N1CCC[C@]12CC=CCCCC1(CCCC=CCCCOC(=O)N3CC[C@@](C(=O)N[C@@H](Cc4ccccc4Cl)C(=O)N[C@@H](Cc4csc5ccccc45)C(=O)N[C@@H](CCC(N)=O)C(N)=O)(C3)NC(=O)[C@H](CC(C)C)NC(=O)[C@H](Cc3ccccc3)NC(=O)CNC(=O)[C@H](C)NC(=O)[C@H](Cc3cccc(C(=O)O)c3)NC(=O)[C@H](CC(=O)O)NC1=O)NC(=O)[C@H](CC(C)(C)C)NC(=O)[C@H](CC(=O)O)NC2=O (stereo partly drawn) [I-1687, Ac-PL3-Asp-Npg-B5-Asp-3COOHF-Ala-Gly-Phe-Leu-PyrS2-2C1F-BztA-Gln-NH2] | 42 nM | 18600 nM | –
4 | CC(=O)N1CCC[C@]12CC=CCCCC1(CCCC=CCCCOC(=O)N3CC[C@@](C(=O)N[C@@H](Cc4ccsc4)C(=O)N[C@@H](Cc4csc5ccccc45)C(=O)N[C@@H](CCC(N)=O)C(N)=O)(C3)NC(=O)[C@H](CCCN3CCOCC3)NC(=O)[C@H](Cc3ccccc3)NC(=O)[C@H](C)NC(=O)[C@H](C)NC(=O)[C@H](CC(=O)O)NC(=O)[C@H](CC(=O)O)NC1=O)NC(=O)[C@H](CC(C)(C)C)NC(=O)[C@H](CC(=O)O)NC2=O (stereo partly drawn) [I-1485, Ac-PL3-Asp-Npg-B5-Asp-Asp-Ala-Ala-Phe-MorphNva-PyrS2-3Thi-BztA-Gln-NH2] | 7 nM | 25800 nM | –
5 | CC(=O)N1CCC[C@]12CC=CCCCC1(CCCC=CCCCOC(=O)N3CC[C@@](C(=O)N[C@@H](Cc4ccsc4)C(=O)N[C@@H](Cc4csc5ccccc45)C(=O)N[C@@H](C)C(N)=O)(C3)NC(=O)[C@H](Cc3ccccc3)NC(=O)[C@H](Cc3ccccc3)NC(=O)[C@H](C)NC(=O)[C@H](C)NC(=O)[C@H](Cc3cccc(C(=O)O)c3)NC(=O)[C@H](CC(=O)O)NC1=O)NC(=O)[C@H](CC(C)(C)C)NC(=O)[C@H](CC(=O)O)NC2=O (stereo partly drawn) [I-2259, Ac-PL3-Asp-Npg-B5-Asp-3COOHF-Ala-Ala-Phe-Phe-PyrS2-3Thi-BztA-Ala-NH2] | 30 nM | 4300 nM | –
6 | CC(=O)N1CCC[C@]12CC=CCCCC1(CCCC=CCCCOC(=O)N3CC[C@@](C(=O)N[C@@H](Cc4ccsc4)C(=O)N[C@@H](Cc4csc5ccccc45)C(=O)N[C@@H](CCC(=O)N4CCN(CCCN(C)C)CC4)C(N)=O)(C3)NC(=O)[C@H](CC(C)C)NC(=O)[C@H](Cc3ccccc3)NC(=O)[C@H](C)NC(=O)[C@H](C)NC(=O)[C@H](CN(CC(=O)O)CC(F)(F)F)NC(=O)[C@H](CC(=O)O)NC1=O)NC(=O)[C@H](CC(C)(C)C)NC(=O)[C@H](CC(=O)O)NC2=O (stereo partly drawn) [I-1799, Ac-PL3-Asp-Npg-B5-Asp-TfeGA-Ala-Ala-Phe-Leu-PyrS2-3Thi-BztA-[Me2NPrPip]GlnR-NH2] | 8 nM | 25800 nM | –
7 | CC(=O)N1CCC[C@]12CC=CCCCC1(CCCC=CCCCOC(=O)N3CC[C@@](C(=O)N[C@@H](Cc4ccsc4)C(=O)N[C@@H](Cc4csc5ccccc45)C(=O)N[C@@H](CCC(N)=O)C(N)=O)(C3)NC(=O)[C@H](CCC(=O)N3CCOCC3)NC(=O)[C@H](Cc3ccccc3)NC(=O)[C@H](C)NC(=O)[C@H](C)NC(=O)[C@H](CN(CC(=O)O)CC(F)(F)F)NC(=O)[C@H](CC(=O)O)NC1=O)NC(=O)[C@H](CC(C)(C)C)NC(=O)[C@H](CC(=O)O)NC2=O (stereo partly drawn) [I-1943, Ac-PL3-Asp-Npg-B5-Asp-TfeGA-Ala-Ala-Phe-[Morph]GlnR-PyrS2-3Thi-BztA-Gln-NH2] | 7 nM | – | 3800 nM
8 | CC(=O)N1CCC[C@]12CC=CCCCC1(CCCC=CCCCOC(=O)N3CC[C@@](C(=O)N[C@@H](Cc4ccsc4)C(=O)N[C@@H](Cc4csc5ccccc45)C(=O)N[C@@H](CC(C)(C)C)C(N)=O)(C3)NC(=O)[C@H](CC(C)C)NC(=O)[C@H](Cc3ccccc3)NC(=O)[C@H](C)NC(=O)C(C)(C)NC(=O)[C@H](Cc3cccc(C(=O)O)c3)NC(=O)[C@H](CC(=O)O)NC1=O)NC(=O)[C@H](CC(C)(C)C)NC(=O)[C@H](CC(=O)O)NC2=O (stereo partly drawn) [I-2194, Ac-PL3-Asp-Npg-B5-Asp-3COOHF-Aib-Ala-Phe-Leu-PyrS2-3Thi-BztA-Npg-NH2] | 91 nM | – | 8800 nM

Continued by falling IC50 [1], values first:

Row | IC50 [1] | IC50 ([2]; absolute IC50) | IC50 [2] | Compound
9 | 44 nM | 23100 nM | – | CC(=O)N1CCC[C@]12CC=CCCCC1(CCCC=CCCCOC(=O)N3CC[C@@](C(=O)N[C@@H](Cc4ccsc4)C(=O)N[C@@H](Cc4cccc5ccccc45)C(=O)N[C@@H](CO)C(N)=O)(C3)NC(=O)[C@H](CC(C)C)NC(=O)[C@H](Cc3ccccc3)NC(=O)[C@H](C)NC(=O)[C@H](C)NC(=O)[C@H](CC(=O)O)NC(=O)[C@H](CC(=O)O)NC1=O)NC(=O)[C@H](CC(C)(C)C)NC(=O)[C@H](CC(=O)O)NC2=O (stereo partly drawn) [I-1238, Ac-PL3-Asp-Npg-B5-Asp-Asp-Ala-Ala-Phe-Leu-PyrS2-3Thi-1NapA-Ser-NH2]
10 | 40 nM | – | > 20000 nM | CC(=O)N1CCC[C@]12CC=CCCCC1(CCCC=CCCCOC(=O)N3CC[C@@](C(=O)N[C@@H](Cc4ccsc4)C(=O)N[C@@H](Cc4csc5ccccc45)C(=O)N[C@@H](CCC(N)=O)C(N)=O)(C3)NC(=O)[C@H](CC(N)=O)NC(=O)[C@H](Cc3ccccc3)NC(=O)[C@H](C)NC(=O)[C@H](C)NC(=O)[C@H](CCCNC(=N)N)NC(=O)[C@H](CC(=O)O)NC1=O)NC(=O)[C@H](CC(C)(C)C)NC(=O)[C@H](CC(=O)O)NC2=O (stereo partly drawn) [I-1891, Ac-PL3-Asp-Npg-B5-Asp-Arg-Ala-Ala-Phe-Asn-PyrS2-3Thi-BztA-Gln-NH2]
11 | 29 nM | 7400 nM | – | CC(=O)N1CCC[C@]12CC=CCCCC1(CCCC=CCCCOC(=O)N3CC[C@@](C(=O)N[C@@H](Cc4ccccc4C(F)(F)F)C(=O)N[C@@H](Cc4csc5c(F)cccc45)C(=O)N[C@@H](C)C(N)=O)(C3)NC(=O)[C@H](CC(C)C)NC(=O)[C@H](Cc3ccccc3)NC(=O)[C@H](C)NC(=O)[C@H](CCC(N)=O)NC(=O)[C@H](Cc3cccc(C(=O)O)c3)NC(=O)[C@H](CC(=O)O)NC1=O)NC(=O)[C@H](CC(C)(C)C)NC(=O)[C@H](CC(=O)O)NC2=O (stereo partly drawn) [I-2489, Ac-PL3-Asp-Npg-B5-Asp-3COOHF-Gln-Ala-Phe-Leu-PyrS2-2F3MeF-7FBztA-Ala-NH2]
12 | 14 nM | – | 6400 nM | CC(=O)N1CCC[C@]12CC=CCCCC1(CCCC=CCCCOC(=O)N3CC[C@@](C(=O)N[C@@H](Cc4ccccc4Cl)C(=O)N[C@@H](Cc4csc5ccccc45)C(=O)N[C@@H](CO)C(N)=O)(C3)NC(=O)[C@H](CO)NC(=O)[C@H](Cc3ccccc3)NC(=O)[C@H](C)NC(=O)[C@H](C)NC(=O)[C@H](Cc3cccc(C(=O)O)c3)NC(=O)[C@H](CC(=O)O)NC1=O)NC(=O)[C@H](CC(C)(C)C)NC(=O)[C@H](CC(=O)O)NC2=O (stereo partly drawn) [I-1903, Ac-PL3-Asp-Npg-B5-Asp-3COOHF-Ala-Ala-Phe-Ser-PyrS2-2C1F-BztA-Ser-NH2]
13 | 6 nM | 5100 nM | – | CC(=O)N1CCC[C@]12CC=CCCCC1(CCCC=CCCCOC(=O)N3CC[C@@](C(=O)N[C@@H](Cc4ccsc4)C(=O)N[C@@H](Cc4ccc5c(c4)CCC5)C(=O)N[C@@H](C)C(N)=O)(C3)NC(=O)[C@H](C(C)C)NC(=O)[C@H](Cc3ccccc3)NC(=O)[C@H](C)NC(=O)[C@H](CCC(N)=O)NC(=O)[C@H](Cc3cccc(C(=O)O)c3)NC(=O)[C@H](CC(=O)O)NC1=O)NC(=O)[C@H](CC(C)(C)C)NC(=O)[C@H](CC(=O)O)NC2=O (stereo partly drawn) [I-2296, Ac-PL3-Asp-Npg-B5-Asp-3COOHF-Gln-Ala-Phe-Val-PyrS2-3Thi-5IndA-Ala-NH2]
